Test results published in US11180463B2, “Thiazole inner salt compounds, and preparation methods and uses thereof” (Institute of Pharmacology and Toxicology Academy of …, priority 2013, dated 2021).
“And” between values parts separate entries of the source, which are not always exact repeats. Equal values may be shown once. Where a name gives a salt, the structure may show the parent alone. Read-outs that look alike come from different tables or passages of the source.

Experiments:
[1] = Accelerated stability test (RT40° C., RH75%); type: physicochemical; conditions: for Purity* (%) / Weight gain (%) / Appearance and color: RT40° C., RH75%; for Accelerated test, 3 months: appearance after 3 months at 40° C., humidity 75%, three batches
Procedure: Three batches of sample (prepared according to Example 2) were taken according to the Chinese Pharmacopoeia, 2010 Edition, packaged like packaging for sale (high-density polyethylene bags were used for drug packaging), placed under conditions of RT40° C., RH75% (NaCl saturated solution) to carry out accelerated test, after 1, 2, 3, 6 months, sampled for observation of the compound of Formula I and the compound of Formula A, compared to the data of the 0th day, and the results were shown in Table 1 and Table 2.
One batches of sample as prepared according to Example 3 were taken, packaged like packaging for sale (high-density polyethylene bags were used for drug packaging), placed under conditions of RT40° C., RH75% (NaCl saturated solution), after 1, 2, 3 months, sampled and compared to the data of the 0th day, and the results were shown in Table 3.
Three batches of sample of the compound of Formula A were taken according to the Chinese Pharmacopoeia, 2010 Edition, packaged like packaging for sale (high-density polyethylene bags were used for drug packaging), placed under conditions of RT40° C., RH75% (NaCl saturated solution), after 1, 2, 3 months, sampled and compared to the data of the 0th day, and the results were shown in Table 1 and Table 4.

[2] = tested on: RBC surface cross-linked IgG; test: In vitro breaking erythrocytic surface cross-linked IgG (ELISA, lytic rate); type: cell-based; conditions: RBC of 16 weeks diabetic rats, 37° C., 16-18 h
From the text: Because erythrocytic surface cross-linked IgG is a typical AGEs cross-linked structure, the determination of degree that a compound breaks erythrocytic surface cross-linked IgG is well known as a better method for evaluating the ability of the compound in breaking AGEs cross-linked structure (Bruceh. R. Wolffenbuttel, Breakers of advanced glycation end products restore large artery properties in experimental diabetes, Natl. Acad. Sci. U.S.A 1998, 95, 4630).
Method for treating blood cells: 16 weeks diabetic rats were narcotized, blood samples were got from their carotid arteries, added with heparin for anticoagulation, centrifuged at 4° C. and 1000 g for 3 min, the lower layer RBC (red blood cells) was taken; washed with 0.1 mol/L PBS (pH7.4) for 3 times, centrifuged each time at 4° C. and 1000 g for 3 min; and the lower layer RBC was used for test.
In vitro administration method: 0.1 mol/L isotonic PBS (phosphate buffer) (pH7.4) was used as negative control, each of the compounds to be tested formed solutions with different concentrations using the buffer. Into per 900 μL of solution or solvent, 100 μL RBC was added, slightly shook at 37° C. for 16-18 h; centrifuged at 1000 g, 4° C. for 3 min, the supernatant was discarded, the plate was washed with 0.1 mol/L PBS (pH7.4) for 4 times to remove residual compound; centrifuged at 1000 g, 4° C. for 3 min, the lower layer RBC was diluted in ratio of 1:100 for ELISA determination.
Procedure for determination of RBC surface cross-linked IgG content via immunoadsorption method: Multiscreen-HA 0.45 μm 96-well plate (Millipore), sealed with Superblock (300 μL/well), 37° C., 1 h; then drained under 5 mmHg of negative pressure, the whole plate was washed with PBST for 3 times, washed with 0.1M PBS (pH7.4) for twice, shaking plate each time for 1 min; added with RBC (50 μL/well) to be tested, another PBS background control well (OD0) was set; drained under negative pressure; washed with 150 μL of 0.1 mol/L PBS (pH7.4) for 4 times, shaking plate each time for 1 min. After being drained under negative pressure, the 1:500 diluted goat-anti-mouse IgG-HRP (50 μL/well) was added, stood at room temperature for 2 h, drained; washed with 0.1 mol/L PBS (pH7.4), 150 μL/well, for 3 times, shaking plate each time for 1 min; drained; added with o-phenylenediamine (OPD) substrate developing solution (100 μL/well), stood at room temperature in dark for 30 min, the reaction was terminated with 2 mol/L H2SO4 (100 μL/well); the reaction solution (150 μL/well) was sucked out quickly and transferred to a normal 96-well ELISA plate, and OD values were determined under 490 nm.
Calculation of Lytic Rates of the Compounds to be Tested: […]

[3] = tested on: rats with diabetes accompanied by hypertension; test: 24 h urine volume/water intake in rats with diabetes accompanied by hypertension; type: in vivo; conditions: 3rd week
Procedure: In the third week of administration, the rats of each group were solely placed and fed in metabolism cage, and the water intake and urine volume within 24 hours on the 19th, 20th and 21st day were recorded.
In the 3rd week of administering the compound of Example 2, Vurine/Vwater-intake values of rats in 24 hours were calculated.

[4] = tested on: rats with diabetes accompanied by hypertension; test: Blood pressure monitoring, compound of Example 2 alone (Example 7); type: in vivo; conditions: after 4 weeks
long-term diabetic rats = conditions: in vivo, cited from earlier work
[5] = tested on: rats with diabetes accompanied by hypertension
Procedure: In the meantime, pure diabetes group and normal control group of the same week-age were also set. The compound of Example 2 (36 mg/kg) was dissolved in distilled water just before use, administered intragastrically, once per day, for 5 weeks.

[6] = 36 mg/kg intragastrically once per day, Mean ± SD, n = 12
[7] = no significant change vs. model

3-methylcarbonyloxy-4-methyl-thiazole inner salt monohydrate [Example 3]
Purity* (%) ([1]; 0th month): 99.9%
Weight gain (%) ([1]; 0th month): 0%
Purity* (%) ([1]; 1st month): 99.8%
Weight gain (%) ([1]; 1st month): 0.04%
Purity* (%) ([1]; 2nd month): 99.7%
Weight gain (%) ([1]; 2nd month): 0.06%
Purity* (%) ([1]; 3rd month): 99.7%
Weight gain (%) ([1]; 3rd month): 0.07%

Cc1csc[n+]1CC(=O)[O-] (as salt: salt) [Example 2]
melting point: 169 °C

Cc1csc[n+]1CC(=O)[O-] [Example 2]
Purity* (%) ([1]; 0th month): 100.0% and 99.6% and 99.8%
Weight gain (%) ([1]; 0th month): 0%
Purity* (%) ([1]; 1st month): 99.7% and 99.8%
Weight gain (%) ([1]; 1st month): 0.11% and 0.12%
Purity* (%) ([1]; 2nd month): 99.6% and 99.2%
Weight gain (%) ([1]; 2nd month): 0.12% and 0.13%
Purity* (%) ([1]; 3rd month): 99.8% and 99.3%
Weight gain (%) ([1]; 3rd month): 0.15% and 0.14% and 0.13%
Purity* (%) ([1]; 6th month): 99.9% and 99.6% and 99.8%
Weight gain (%) ([1]; 6th month): 0.18% and 0.15%
Accelerated test, 3 months [1]: no obvious appearance change no obvious appearance change no obvious appearance change
Lytic rate (decrease of OD value, %) ([2]; 1 μM): 27.1 ± 2.2%
Lytic rate (decrease of OD value, %) ([2]; 10 μM): 27.5 ± 2.9%
Lytic rate (decrease of OD value, %) ([2]; 30 μM): 23.2 ± 5.1%
Lytic rate (decrease of OD value, %) ([2]; 100 μM): 27.9 ± 3.0%
Vurine [3, 6]: 318.3 ± 106.0 mL
Vwater-intake [3, 6]: 375.0 ± 123.6 mL
Vurine/Vwater-intake ([3]; 36 mg/kg, P < 0.01 vs. model): 0.86 ± 0.05
Vurine/bodyweight ([3]; first line so headed (r8), 36 mg/kg): 0.88 ± 0.31 mL/g
Vurine/bodyweight ([3]; second line so headed (r9), 36 mg/kg): 1.03 ± 0.34 mL/g
systolic pressure variable coefficient (CV) during time period 10:00-20:00 ([4]; in comparison with the model group, P<0.01): significantly decrease
average heart rate during time period 10:00-20:00 [4, 7]: 255±17 beats/min
average pulse-pressure difference during time period 10:00-20:00 [4, 7]: 46.5±5.7 mmHg

Cc1csc[n+]1CC(=O)O.[Na+] [Formula A, 3-carboxymethyl-4metyl-bromothiazolium sodium salt, reference compound]
Weight gain (%) ([1]; 0th month): 0%
Purity* (%) ([1]; 0th month, sodium salt): 98.8% and 99.1% and 98.7%
Appearance and color ([1]; 1st month): brown, tacky
Purity* (%) ([1]; 1st month, sodium salt): 85.1% and 82.7% and 81.6%
Weight gain (%) ([1]; 1st month, sodium salt): 18.0% and 18.5% and 19.0%
Appearance and color ([1]; 2nd month): dark brown,
Purity* (%) ([1]; 2nd month, sodium salt): 60.6% and 59.8% and 60.3%
Weight gain (%) ([1]; 2nd month, sodium salt): 32.6% and 33.6% and 33.8%
Appearance and color ([1]; 3rd month): dark brown,
Purity* (%) ([1]; 3rd month, sodium salt): 51.2% and 48.5% and 54.6%
Weight gain (%) ([1]; 3rd month, sodium salt): 41.5% and 42.1% and 44.0%
Accelerated test, 3 months ([1]; listed as drawing 8, sodium salt): caking, appearance changing into dark brown caking, appearance changing into dark brown caking, appearance changing into dark brown
Accelerated test, 3 months ([1]; sodium salt): easy to absorb moisture, agglomerate and change color
AGEs fluorescence contents of aorta, myocardium of left ventricle and kidney (long-term diabetic rats; long-term diabetic rats): significantly reduce
aorta compliance of diabetic rats (long-term diabetic rats; rat): improved
cardiac output (long-term diabetic rats; rat): increased
left ventricular function (long-term diabetic rats; rat): significantly improved

COC(=O)C1=C(C)NC(C)=C(C(=O)OC)C1c1ccccc1[N+](=O)[O-] [Nifedipine]
systolic pressure variable coefficient (CV) ([5]; after administration for 1-5 h): 0.047±0.017
ejection time (ET) ([5]; after administration for 20 min): 71.8 ± 4.2 ms
average systolic pressure ([5]; after administration for 1 h): 155.2±14.9 mmHg
pressure drop ΔSBP ([5]; after administration for 1.5 h): 25.3±9.3 mmHg
average pulse-pressure difference (PH) ([5]; after administration for 5 h): 48.1±5.1 mmHg
average systolic pressure ([5]; after administration for 5 h): 166.0±15.0 mmHg
ejection time (ET) ([5]; after administration for 5 h): 81.1 ± 5.0 ms
pressure drop ΔSBP ([5]; after administration for 5 h): 15.9±9.3 mmHg
average pulse-pressure difference (PH) ([5]; after administration for 10 h): 48.7±5.2 mmHg
average systolic pressure ([5]; after administration for 10 h): 179.0±14.1 mmHg
pressure drop ΔSBP ([5]; after administration for 10 h): 1.19±3.5 mmHg
time after administration at which the systolic pressure started to rise ([5]; rat, in vivo): 2 h
time after which pulse-pressure difference (PH) started to rise ([5]; rat, in vivo): 1 h
time at which ET recovered the level before administration ([5]; rat, in vivo): 5 h
